From patent publication US11286281B2, “Homodetic cyclic peptides targeting alpha-4-beta-7 integrin” (priority 2017, dated 2022)
“And” between values parts separate entries of the source, which are not always exact repeats. Identical values can stand only once. Numbered stars: 1 amine (or outer) side, 2 acyl side, 3 side chain; on linkers, the order of the positions; unused ones are H or OH. Square brackets hold non-standard residues; d marks the D form. Peptide text beside a SMILES is read from it. X1 = O=C(c1ccc(-c2ccc(N3CCNCC3)cc2)c(CN[*:1])c1)[*:2]

Target: integrin α4β1 (Homo sapiens, UniProt P05556+P13612)
Sequence (P13612 34-1032): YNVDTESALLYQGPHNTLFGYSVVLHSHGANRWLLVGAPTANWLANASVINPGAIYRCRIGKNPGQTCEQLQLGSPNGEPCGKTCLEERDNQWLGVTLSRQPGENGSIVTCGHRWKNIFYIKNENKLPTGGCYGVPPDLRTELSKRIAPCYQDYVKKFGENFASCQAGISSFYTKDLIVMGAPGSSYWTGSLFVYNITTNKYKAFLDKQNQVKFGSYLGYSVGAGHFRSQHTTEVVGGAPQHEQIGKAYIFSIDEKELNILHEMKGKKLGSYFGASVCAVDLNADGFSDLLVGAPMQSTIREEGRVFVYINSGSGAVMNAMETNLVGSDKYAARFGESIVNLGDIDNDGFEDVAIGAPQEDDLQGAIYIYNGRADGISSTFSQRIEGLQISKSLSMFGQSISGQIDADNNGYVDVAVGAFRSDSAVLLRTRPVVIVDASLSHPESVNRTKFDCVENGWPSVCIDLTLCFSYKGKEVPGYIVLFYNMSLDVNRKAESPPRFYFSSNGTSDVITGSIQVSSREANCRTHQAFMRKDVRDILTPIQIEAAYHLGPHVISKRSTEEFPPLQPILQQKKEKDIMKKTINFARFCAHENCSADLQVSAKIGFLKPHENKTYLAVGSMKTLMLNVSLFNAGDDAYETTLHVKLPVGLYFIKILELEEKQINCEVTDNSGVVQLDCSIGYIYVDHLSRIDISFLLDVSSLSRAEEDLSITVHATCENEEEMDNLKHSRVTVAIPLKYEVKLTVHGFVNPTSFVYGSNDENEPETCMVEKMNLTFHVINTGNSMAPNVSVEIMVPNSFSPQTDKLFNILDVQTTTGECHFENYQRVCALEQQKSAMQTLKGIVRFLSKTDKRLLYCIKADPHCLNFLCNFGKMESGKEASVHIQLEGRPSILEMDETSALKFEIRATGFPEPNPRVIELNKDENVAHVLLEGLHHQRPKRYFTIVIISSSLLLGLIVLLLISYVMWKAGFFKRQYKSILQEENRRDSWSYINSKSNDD
Sequence (P05556 21-798): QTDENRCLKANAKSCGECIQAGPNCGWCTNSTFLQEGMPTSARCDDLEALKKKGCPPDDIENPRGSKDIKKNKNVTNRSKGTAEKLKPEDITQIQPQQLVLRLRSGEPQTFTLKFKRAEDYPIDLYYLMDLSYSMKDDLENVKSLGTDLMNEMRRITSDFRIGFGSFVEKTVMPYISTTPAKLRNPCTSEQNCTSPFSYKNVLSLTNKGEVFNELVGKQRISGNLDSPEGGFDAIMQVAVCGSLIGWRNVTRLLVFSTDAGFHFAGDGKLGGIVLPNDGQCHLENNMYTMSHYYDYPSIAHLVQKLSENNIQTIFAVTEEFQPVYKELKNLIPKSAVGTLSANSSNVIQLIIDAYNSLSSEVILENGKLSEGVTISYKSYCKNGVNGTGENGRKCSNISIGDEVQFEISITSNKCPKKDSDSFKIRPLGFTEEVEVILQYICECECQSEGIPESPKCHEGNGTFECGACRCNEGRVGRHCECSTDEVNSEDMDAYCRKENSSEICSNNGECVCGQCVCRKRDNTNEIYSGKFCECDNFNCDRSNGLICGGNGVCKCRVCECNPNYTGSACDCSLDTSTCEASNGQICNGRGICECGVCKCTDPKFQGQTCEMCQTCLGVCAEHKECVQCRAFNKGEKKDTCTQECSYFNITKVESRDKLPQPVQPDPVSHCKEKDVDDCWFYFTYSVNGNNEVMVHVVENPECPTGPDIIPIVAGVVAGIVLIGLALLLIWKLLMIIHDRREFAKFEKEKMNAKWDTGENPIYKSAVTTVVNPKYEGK
Experiment: Integrin α4β1-VCAM human cell adhesion assay (RAMOS cells)
Assay type: cell-based
Parameters: host or cells: RAMOS human cells
Settings: adhesion of RAMOS cells to VCAM-1 coated plates
Experimental: Integrin α4β1-VCAM Human Cell Adhesion Assay
RAMOS human cells (ATCC CRL-1596) were cultured in RPMI 1640 medium (HyClone SH30027.1) supplemented with 10% FBS (Seradigm) and 1% Penicillin-Streptomycin. A 96-well plate (Costar, 3603) was coated with 100 μl/well of recombinant human VCAM-1 Fc Chimera (R&D systems, 862-VC-100) solution at 0.25 μg/ml in coating buffer (50 mM sodium carbonate, pH 9.6). The plate was incubated overnight at 4° C. and washed twice with […] per well wash buffer (0.05% Tween 20 in PBS), blocked with 250 μl per well blocking buffer (1% non-fat dry milk in PBS), for 1 hour at room temperature. During blocking step, RAMOS cells were resuspended at 10 million cells/ml in PBS containing […] and incubated at 37° C. for 30 min in a 50 ml tube. PBS was added to fill the tube, cells were spun down and resuspended in RPMI 1640 medium to 2 million/mi. Compounds were diluted by serial dilution in binding buffer (1.5 mM CaCl2, 0.5 mM MnCl2, 50 mM Tris-HCl, pH 7.5) to a final volume of 50 μl per well at 2× concentration. […] After last wash, 100 μL of PBS was added to wells and the fluorescence was read (Ex495/Em515) using a plate reader (Tecan Infinite 1000). To calculate the dose response, the fluorescence value of control wells not containing cells was subtracted from each test well.

| Compound | IC50 |
| --- | --- |
| CC(C)C[C@@H]1NC(=O)c2ccc(-c3ccc(N4CCNCC4)cc3)c(c2)CNC(=O)[C@@H]2CCCN2C(=O)[C@H](C)NC(=O)[C@H]([C@@H](C)O)NC(=O)[C@H](CC(=O)O)NC1=O [Compound 8] (cyclo(P[X1]LDTA)) | ~451 nM and 451 nM |
| CC(C)C[C@@H]1NC(=O)c2ccc(-c3ccc(N4CCN(Cc5cccc(CN6CCN(c7ccc(-c8ccc9cc8CNC(=O)[C@@H]8CCCN8C(=O)[C@H](C)NC(=O)[C@H]([C@@H](C)O)NC(=O)[C@H](CC(=O)O)NC(=O)[C@H](CC(C)C)NC9=O)cc7)CC6)c5)CC4)cc3)c(c2)CNC(=O)[C@@H]2CCCN2C(=O)[C@H](C)NC(=O)[C@H]([C@@H](C)O)NC(=O)[C@H](CC(=O)O)NC1=O [Compound 18] | 184 nM |
